Patent US10227361B2, “Fused imidazobenzothiazole compounds” (TORRENT PHARMACEUTICALS LIMITED, priority 2014, dated 2019)

Target: T1, purified recombinant human p38 alpha MAPK (Homo sapiens, UniProt Q16539)
T1 construct: purchased Millipore, USA
Experiment: Inhibition of p38 alpha MAPK activity: TR-FRET kinase assay
Assay type: biochemical
Conditions: Concentration 1 μM; for inhibition at 1 µM: read-out: P38α Inhibition
Method: Inhibition of p38 Alpha MAPK Activity: Time-Resolved Fluorescence Resonance Energy Transfer Kinase Standard Assay (TR-FRET Assay)
Compounds of present invention at various concentrations were premixed with DMSO. The experiment was initiated by mixing 0.5% 1.0% DMSO as vehicle/compounds with purified recombinant human p38 alpha MAPK (Millipore, USA) in the wells and 15 min incubation at RT. Thereafter, 30 nM of Biotinylated GST-ATF2 (Activation Transcription Factor2) and 100 μM of ATP were added in to the wells containing reaction mixture, followed by reincubation for 60 minutes at RT. Reaction was terminated by addition of 10 mM of EDTA and detection reagent containing anti-phosphothreonine ATF2 antibody (Perkin Elmer, USA) labelled with europium chelate and APC (Allophycocyanin) labeled streptavidin, into the reaction mixture which was further incubated for 60 minutes at room temperature. The degree of phosphorylation of the substrate (GST-ATF2) was measured using Envision multimode reader (Perkin Elmer). Percentage inhibition of p38 kinase activity was calculated by determining ratio of specific europium 665 nm energy transfer signal to reference 615 nm signal.

T1 sequence (Q16539 whole entry): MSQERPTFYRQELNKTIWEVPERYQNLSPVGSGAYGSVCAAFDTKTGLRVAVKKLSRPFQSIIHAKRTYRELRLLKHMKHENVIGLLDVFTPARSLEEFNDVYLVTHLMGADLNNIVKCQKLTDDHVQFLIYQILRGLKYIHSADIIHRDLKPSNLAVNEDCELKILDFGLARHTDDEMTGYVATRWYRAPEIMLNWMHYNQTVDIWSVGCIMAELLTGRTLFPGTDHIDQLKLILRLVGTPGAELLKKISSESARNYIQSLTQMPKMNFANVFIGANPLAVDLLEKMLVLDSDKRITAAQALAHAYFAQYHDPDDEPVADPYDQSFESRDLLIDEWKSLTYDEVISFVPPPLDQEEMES

Compound	P38α Inhibition	inhibition at 1 µM [%]
7-{[4-({[3-tert-butyl-1-(4-hydroxyphenyl)-1H-pyrazol-5-yl]carbamoyl}amino)phenyl]sulfanyl}-N-(2-hydroxyethyl)imidazo[2,1-b][1,3]benzothiazole-3-carboxamide [Compound 11]	++ (++ = Inhibition ≥20% ≤ 40%)	–
CCOC(=O)c1cnc2sc3cc(Oc4ccc(NC(=O)Nc5cc(C(C)(C)C)nn5-c5ccc(OC)c(Cl)c5)cc4)ccc3n12 [Compound 5, ethyl 7-[4-({[3-tert-butyl-1-(3-chloro-4-methoxyphenyl)-1H-pyrazol-5-yl]carbamoyl}amino)phenoxy]imidazo[2,1-b][1,3]benzothiazole-3-carboxylate]	–	20 to 40
CC(C)(C)c1cc(NC(=O)NCc2ccccc2Oc2ccc3c(c2)sc2ncc(C(=O)O)n23)n(-c2ccc(O)c(Cl)c2)n1 [Compound 19, 7-{2-[({[3-tert-butyl-1-(3-chloro-4-hydroxyphenyl)-1H-pyrazol-5-yl]carbamoyl}amino)methyl]phenoxy}imidazo[2,1-b][1,3]benzothiazole-3-carboxylic acid]	–	80 to 100
COCc1c(C)nc2sc3cc(Oc4ccccc4CNC(=O)Nc4ccc(OC)c(Cl)c4)ccc3n12 [Compound 48, 1-(3-chloro-4-methoxyphenyl)-3-(2-{[3-(methoxymethyl)-2-methylimidazo[2,1-b][1,3]benzothiazol-7-yl]oxy}benzyl)urea]	–	60 to 80
CCOC(=O)c1cnc2sc3cc(Oc4ccccc4CNC(=O)Nc4ccc(OC)c(Cl)c4)ccc3n12 [Compound 44, ethyl 7-[2-({[(3-chloro-4-methoxyphenyl)carbamoyl]amino}methyl)phenoxy]imidazo[2,1-b][1,3]benzothiazole-3-carboxylate]	–	40 to 60
CC(C)(C)c1cc(NC(=O)NCc2ccccc2Oc2ccc3c(c2)sc2ncc(CO)n23)n(-c2ccc(O)cc2)n1 [Compound 16, 1-[3-tert-butyl-1-(4-hydroxyphenyl)-1H-pyrazol-5-yl]-3-(2-{[3-(hydroxymethyl)imidazo[2,1-b][1,3]benzothiazol-7-yl]oxy}benzyl)urea]	–	80 to 100
COCc1c(C)nc2sc3cc(Oc4ccccc4CNC(=O)Nc4cc(C(C)(C)C)nn4-c4ccc(O)c(Cl)c4)ccc3n12 [Compound 37, 1-[3-tert-butyl-1-(3-chloro-4-hydroxyphenyl)-1H-pyrazol-5-yl]-3-(2-{[3-(methoxymethyl)-2-methylimidazo[2,1-b][1,3]benzothiazol-7-yl]oxy}benzyl)urea]	–	80 to 100
Cc1ccc(-n2nc(C(C)(C)C)cc2NC(=O)Nc2ccc(Oc3ccc4c(c3)sc3nc(C(=O)NC(CO)c5ccccc5)cn34)cc2)cc1 (centres unmarked) [Compound 3, 7-[4-({[3-tert-butyl-1-(4-methylphenyl)-1H-pyrazol-5-yl]carbamoyl}amino)phenoxy]-N-(2-hydroxy-1-phenylethyl)imidazo[2,1-b][1,3]benzothiazole-2-carboxamide]	–	40 to 60
COc1c(NC(=O)NCc2ccccc2Oc2ccc3c(c2)sc2ncc(CN4CCOCC4)n23)cc(C(C)(C)C)cc1NS(C)(=O)=O [Compound 74, N-(5-tert-butyl-2-methoxy-3-{[(2-{[3-(morpholin-4-ylmethyl)imidazo[2,1-b][1,3]benzothiazol-7-yl]oxy}benzyl)carbamoyl]amino}phenyl) methanesulfonamide]	–	60 to 80
CC(C)(C)c1cc(NC(=O)NCc2ccccc2Sc2ccc3c(c2)sc2ncc(C(=O)O)n23)n(-c2ccc(O)c(Cl)c2)n1 [Compound 24, 7-({2-[({[3-tert-butyl-1-(3-chloro-4-hydroxyphenyl)-1H-pyrazol-5-yl]carbamoyl}amino)methyl]phenyl}sulfanyl)imidazo[2,1-b][1,3]benzothiazole-3-carboxylic acid]	–	40 to 60
COc1ccc(-n2nc(C(C)(C)C)cc2NC(=O)Nc2ccc(Sc3ccc4c(c3)sc3ncc(C(=O)O)n34)cc2)cc1 [Compound 10, 7-{[4-({[3-tert-butyl-1-(4-methoxyphenyl)-1H-pyrazol-5-yl]carbamoyl}amino)phenyl]sulfanyl}imidazo[2,1-b][1,3]benzothiazole-3-carboxylic acid]	–	80 to 100
CCOC(=O)c1cnc2sc3cc(Oc4ccccc4CNC(=O)NC(CO)c4ccccc4)ccc3n12 (centres unmarked) [Compound 42, ethyl 7-[2-({[(2-hydroxy-1-phenylethyl)carbamoyl]amino}methyl)phenoxy]imidazo[2,1-b][1,3]benzothiazole-3-carboxylate]	–	≤ 20
CC(C)(C)c1cc(NC(=O)Nc2ccc(Sc3ccc4c(c3)sc3ncc(C(=O)O)n34)cc2)n(-c2ccc(O)cc2)n1 [Compound 9, 7-{[4-({[3-tert-butyl-1-(4-hydroxyphenyl)-1H-pyrazol-5-yl]carbamoyl}amino)phenyl]sulfanyl}imidazo[2,1-b][1,3]benzothiazole-3-carboxylic acid]	–	80 to 100
CCOC(=O)c1cnc2sc3cc(Oc4ccccc4CNC(=O)Nc4cc(OC)cc(OC)c4)ccc3n12 [Compound 45, ethyl 7-[2-({[(3,5-dimethoxyphenyl)carbamoyl]amino}methyl)phenoxy]imidazo[2,1-b][1,3]benzothiazole-3-carboxylate]	–	≤ 20
Cc1cnc(-c2cnc3sc4cc(Oc5ccccc5CNC(=O)Nc5cc(C(C)(C)C)nn5-c5ccc(O)c(Cl)c5)ccc4n23)o1 [Compound 64, 1-[3-tert-butyl-1-(3-chloro-4-hydroxyphenyl)-1H-pyrazol-5-yl]-3-(2-{[3-(5-methyl-1,3-oxazol-2-yl)imidazo[2,1-b][1,3]benzothiazol-7-yl]oxy}benzyl)urea]	–	60 to 80
COc1ccc(-n2nc(C(C)(C)C)cc2NC(=O)Nc2ccc(Oc3ccc4c(c3)sc3ncc(CO)n34)cc2)cc1 [Compound 15, 1-[3-tert-butyl-1-(4-methoxyphenyl)-1H-pyrazol-5-yl]-3-(4-{[3-(hydroxymethyl)imidazo[2,1-b][1,3]benzothiazol-7-yl]oxy}phenyl)urea]	–	60 to 80
CC(C)(C)c1cc(NC(=O)Nc2ccc(Oc3ccc4c(c3)sc3ncc(CO)n34)cc2)n(-c2ccc(O)c(Cl)c2)n1 [Compound 27, 1-[3-tert-butyl-1-(3-chloro-4-hydroxyphenyl)-1H-pyrazol-5-yl]-3-(4-{[3-(hydroxymethyl)imidazo[2,1-b][1,3]benzothiazol-7-yl]oxy}phenyl)urea]	–	60 to 80
CC(C)(C)c1cc(NC(=O)NCc2ccccc2Oc2ccc3c(c2)sc2ncc(CN4CCC(O)CC4)n23)n(-c2ccc(O)c(Cl)c2)n1 [Compound 65, 1-[3-tert-butyl-1-(3-chloro-4-hydroxyphenyl)-1H-pyrazol-5-yl]-3-[2-({3-[(4-hydroxypiperidin-1-yl)methyl]imidazo[2,1-b][1,3]benzothiazol-7-yl}oxy)benzyl]urea]	–	60 to 80
CCOC(=O)c1cnc2sc3cc(Oc4ccccc4CNC(=O)Nc4cc(C(C)(C)C)nn4-c4ccccc4)ccc3n12 [Compound 67, ethyl 7-[2-({[(3-tert-butyl-1-phenyl-1H-pyrazol-5-yl)carbamoyl]amino}methyl)phenoxy]imidazo[2,1-b][1,3]benzothiazole-3-carboxylate]	–	60 to 80
CCOC(=O)c1cnc2sc3cc(Oc4ccccc4CNC(=O)NC4CCCCC4)ccc3n12 [Compound 46, ethyl 7-(2-{[(cyclohexylcarbamoyl)amino]methyl}phenoxy)imidazo[2,1-b][1,3]benzothiazole-3-carboxylate]	–	≤ 20
